Reference: patent publication US10995126B2, “Immunogenic peptide containing a b cell epitope of tumor associated antigen L6” (National Health Research Institutes, priority 2016, dated 2021)
No end group written: not given here.

Experiments:
[1] = tested on: lung cancer cell line H2981; test: ADCC Cr51 release assay with sera of immunized mice, H2981 target cells; type: cell-based, human; details: formulated with PELC/CpG; sera collected at 6 weeks
Method: (§1) FIG. 9 is a set of graphs showing that peptide formulated with different adjuvants induced antibody-dependent cellular cytotoxicity (ADCC) against human cancer cells. Mice were immunized with peptide Th-EP1-A2-5 in various adjuvants twice at a two-week interval. Sera were collected at 6 weeks for ADCC assay. (A) Lung cancer cell line H2981 was used as a target. (B) Human breast cancer cell lines MCF7 and MCF7-TAL6 were used as targets. TAL6-specific ADCC was determined by Cr^51 release assay. The lysis percentage was calculated as: immunized serum (lysis %)−naïve serum (lysis %) ***P<0.001.
(§2) Mice were immunized with Th-A2-5-EP1 formulated with different adjuvants twice at a two-week interval. Sera was collected at 6 weeks for ADCC assay. […] TAL6-specific ADCC was determined by Cr51 release assay. The lysis percentage was calculated by subtracting the […].
(§3) Mice spleen cells were used as effector cells for the ADCC assay. […] After 6 hr, supernatants were harvested to measure the radioactivity using a gamma counter. Spontaneous release was measured in wells containing target cells alone. […] Percent cytotoxicity was determined according to the formula: percent lysis=100×(experimental ^51Cr release−spontaneous ^51Cr release)/(maximal ^51Cr release−spontaneous ^51Cr release).

[2] = tested on: breast cancer cell lines MCF7 and MCF7-TAL6; test: ADCC Cr51 release assay with sera of immunized mice, MCF7 and MCF7-TAL6 target cells; type: cell-based, human; details: formulated with PELC/CpG; sera collected at 6 weeks
Method: as §1, §2, §3

[3] = tested on: anti-TAL6 monoclonal antibody L6; test: ELISA epitope mapping: detection of coated TAL6 peptides by L6 mAb; type: binding; details: plate coated with peptide 10 μg/ml; antibody 1:500
Method: FIG. 1 includes (A) a scheme showing the overlapping peptides that cover the extracellular domains of TAL6: EL1 (residues 31 to 46 of SEQ ID NO: 1); EL2 (residues 114 to 164 of SEQ ID NO: 1); EP1 (SEQ ID NO: 4); EP2 (SEQ ID NO: 17); EP3 (SEQ ID NO: 18); and EP4 (SEQ ID NO: 19); and (B) a graph showing binding of the peptides to anti-TAL6 antibodies. A 96-well plate was coated with the indicated peptides (10 μg/ml) in each well. Three anti-TAL6 antibodies (1:500) were used to detect these peptides. CP: Control peptide.
FIG. 10 is a graph showing identification of residues in EP1 that are important for antibody binding using alanine scanning. The amino acid residues in EPI were individually replaced with alanine to generate EP1-1 to EP1-20 peptides. Monoclonal antibody L6 was used to detect these peptides. EP1 is a positive control and EP-3 is a negative control.
Three purified anti-TAL6 monoclonal antibodies (1F4, 9C7, L6) were used to detect the surface expression TAL6 on EL-4 (EL-4/L6) cells. See Chang et al., Int J Cancer, 116 (2005) 243-252. […] To further map the antibody-binding epitopes, five peptides (EL1 and EP1-4) that cover the EL1 and EL2 extracellular loops were used to determine the linear B cell epitopes using ELISA. […]
(§4) For antibody epitope mapping, L6, 9C7 and 1F4 Mabs were assayed by ELISA. […] Absorbance was measured at 450 nm.

EL4 parental cells = test: ADCC Cr51 release assay with sera of immunized mice, EL4 parental target cells; type: cell-based; details: C57BL/6 mice, IFA; sera 1:100; immunized serum lysis % minus naïve serum lysis %
Method: (§5) FIG. 2 is a set of graphs showing that immunization of WT mice with the EP1 peptide induced anti-tumor immunity. EP1 or positive control MCF-7/TAL6 cells formulated with incomplete Freund's adjuvant (IFA) were administered to mice twice at a two-week interval. (A) Anti-TAL6 antibody titers were determined by using cell-based ELISA. Antigen-specific antibody was calculated as: EL4-L6 (O.D.)−EL4 (O.D.). (B) TAL6-specific ADCC was determined in a Cr^51 release assay. The lysis percentage was calculated as immunized serum (lysis %)−naïve serum (lysis %). ***P<0.001.
(§6) To test whether the EP1 peptide could raise antibodies that bind native TAL6, the EP1 peptide or MCF-7/L6 cells (as positive control) were formulated with IFA/Th and administered to C57BL/6 mice. Sera from immunized mice were collected and the anti-TAL6 antibody titers were analyzed using cell-based ELISA. […]
as §3

[4] = tested on: TAL6-expressed EL4 (EL4/L6) cells; test: ADCC Cr51 release assay with sera of immunized mice, EL4/L6 target cells; type: cell-based; details: C57BL/6 mice, IFA; sera 1:100; immunized serum lysis % minus naïve serum lysis %
Method: as §5
FIG. 6 is a set of graphs showing that immunization with PELC/CpG/Th-A2-5-EP1 induced high levels of humoral and cellular immunity in HLA-A2 mice. The Th-A2-5-EP1 peptide was formulated with different adjuvants. […] (A) IFN-γ-secreting cells were determined using IFN-γ ELISpot assay. Results are expressed as mean SD. ***P<0.001. […] (D) TAL6-specific ADCC was determined by Cr^51 release assay. The lysis percentage was calculated as: immunized serum (lysis %)—naïve serum (lysis %) ***P<0.001.
as §6

native TAL6 = molecular target: T1, native TAL6 (Homo sapiens, UniProt P30408); test: Anti-TAL6 antibody in sera of immunized mice, cell-based ELISA; type: in vivo, C57BL/6 mice; details: formulated with IFA/Th, sera 1:500, EL4-L6 O.D. minus EL4 O.D.
T1 construct: expressed in transfected cells; host or cells: EL-4 (mouse lymphoma) cells expressing TAL6 (EL-4/L6, EL4-L6)
T1 sequence (P30408 1-202): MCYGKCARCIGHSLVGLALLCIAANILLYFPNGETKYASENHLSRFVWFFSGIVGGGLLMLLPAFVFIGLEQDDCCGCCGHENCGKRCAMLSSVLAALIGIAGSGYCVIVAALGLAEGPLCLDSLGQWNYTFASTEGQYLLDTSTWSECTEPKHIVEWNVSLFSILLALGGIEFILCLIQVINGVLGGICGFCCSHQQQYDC
Method: as §5
To test whether the EP1 peptide could raise antibodies that bind native TAL6, the EP1 peptide or MCF-7/L6 cells (as positive control) were formulated with IFA/Th and administered to C57BL/6 mice. Sera from immunized mice were collected and the anti-TAL6 antibody titers were analyzed using cell-based ELISA. […] See FIG. 2, A. Whether EP1 immunization could induce antibody-dependent cellular cytotoxicity (ADCC) was also investigated. Sera (1:100) from mice immunized with either EP1 or MCF-7/L6 cells could kill TAL6-expressed EL4 (EL4/L6) cells but not EL4 parental cells (61.82%±6.12% v.s. 0.36%±0.96% and 65.54%±1.77% v.s. 11.41%±3.094%). […]
as §4

B16-L6 cells = test: Immunization then subcutaneous B16-L6 tumor challenge in WT mice; type: in vivo, C57BL/6 mice
Method: EP1 or positive control MCF-7/TAL6 cells formulated with incomplete Freund's adjuvant (IFA) were administered to mice twice at a two-week interval. (A) At 7 days after the final immunization, B16-L6 (2×10^4) cells were inoculated subcutaneously. Tumor growth was monitored 2-3 times per week. (B) The survival rate of the mice was determined.
Mice were immunized with 50 mg of EP1 formulated with the indicated adjuvants twice at a 14-day interval. (A) At 7 days after the second immunization, 2×10^4 of B16/TAL6 cells were injected subcutaneously. Tumor growth was monitored 2-3 times per week. Results obtained are expressed as mean SD (n=6). (B) Mouse survival rate was monitored. Results are expressed as means ±SD (*P<0.05.**P<0.01).
See FIG. 2, B. To investigate if the EP1 peptide could induce anti-tumor activity, mice were immunized with EP1 peptide and then challenged with B16-L6 cells (2×10^4/mouse) at 7 days after the final immunization.
The EP1 peptide was formulated with different adjuvants. Mice were immunized with 50 mg of the formulations twice at a 14-day interval. At 7 days after the second immunization, 2×10^4 B16/TAL6 cells were injected subcutaneously to the mice. Tumor growth was monitored 2-3 times per week.
HLA-A2 Tg mice were injected subcutaneously (s.c.) twice at a 2-week interval with peptide formulated in IFA, alum, DOTAP liposome, PELC nanoparticles, or TLR9 agonist CpG. Seven days after the second immunization, the B16-L6-A2 or B16-L6 cells (2×10^4) were inoculated s.c. on the opposite site of the peptide injection. Tumor sizes were measure 2-3 times per week. Tumor volume was calculated using the formula: tumor volume=length×width×width/2.

AKFVAAWTLKAAAAAALLMLLPAFVAAAGLAEGPLCLDSLGQWNYTFA [Th-A2-5-EP1]
ADCC cytotoxicity, rank among adjuvant formulations [1]: strongest cytotoxicity
ADCC cytotoxicity, rank among adjuvant formulations [2]: strongest cytotoxicity

GLAEGPLCLDSLGQWNYTFA [EP1]
detection of the peptide by L6 mAb (ELISA) [3]: could be detected by L6 mAb
ADCC lysis of EL4 parental cells (EL4 parental cells): 0.36%±0.96%
ADCC lysis of EL4/L6 cells [4]: 61.82%±6.12%
anti-TAL6 antibody amount in sera versus vehicle (PBS) (native TAL6): significantly higher amount of antibody
tumor growth (B16-L6 cells; formulated with IFA, immunized twice, B16-L6 2×10^4/mouse s.c. 7 days after final immunization): significantly inhibited tumor growth
anti-tumor effects (tumor growth, survival) (B16-L6 cells; formulated with PELC/CpG, 50 mg twice at 14-day interval, 2×10^4 B16/TAL6 cells s.c.): induced anti-tumor effects
anti-tumor effect (tumor growth) (B16-L6 cells; formulated with different adjuvants, 50 mg twice at 14-day interval, 2×10^4 B16/TAL6 cells s.c.): exhibited an anti-tumor effect
